According to patent publication US20240150365A1 (Hotspot Therapeutics, Inc., priority 2022, published 2024):
Where two headings read alike, the source gives them in different places. Blank lines part the entries; values can stand above or below the compound they belong to.

Experiments:
NF-kB = NF-kB reporter assay in Jurkat cells stimulated with aCD3/aCD28/PMA; assay type: cell-based; details: Homo sapiens, Jurkat, read-out: NF-kB Reporter Assay IC50
Protocol: Jurkat cells were maintained in complete RPMI 1640 media supplemented with 10% FBS. Prior to the assay, 120 nL of the serial diluted compound was added in each well of 384-well flat bottom white plate (Corning #3570) by using liquid handler Echo550. Jurkat cells were harvested by centrifugation at 120 g for 10 min and resuspended in fresh RPMI 1640 media without serum. 30 μL of cells (25,000 cells) were seeded in each well of 384-well plate containing compound. After 1 hr incubation at 37° C. in a 5% CO2 incubator, 10 μL of diluted aCD3/aCD28/PMA (final concentration at 5 μg/mL, 5 μg/mL and 0.03 μg/mL, respectively) in RPMI 1640 without serum were added to each well. After incubation at 37° C. in 5% CO2 for 4 hr, 30 μL of One-Glo reagent (Promega #E6120) was added into each well. The plate was left at room temperature for 5 min and the signal was measured on EnVision (PerkinElmer).
Compounds in which an IC50 was not measured are designated as “N/A”.

MALT1 = biological target: T1, MALT1 (Homo sapiens, UniProt Q9UDY8); experiment: MALT-1 Fluorogenic Peptide Cleavage Assay (MALT1 inhibition assay); assay type: biochemical; details: Avi-tagged FL MALT-1, Ac-LRSR-AMC peptide substrate, 30 min pre-incubation, 90 min reaction
T1 construct: Avi-tagged FL MALT-1 (Pharmaron, stored at −70° C.); Avi tag
T1 sequence (Q9UDY8 1-824): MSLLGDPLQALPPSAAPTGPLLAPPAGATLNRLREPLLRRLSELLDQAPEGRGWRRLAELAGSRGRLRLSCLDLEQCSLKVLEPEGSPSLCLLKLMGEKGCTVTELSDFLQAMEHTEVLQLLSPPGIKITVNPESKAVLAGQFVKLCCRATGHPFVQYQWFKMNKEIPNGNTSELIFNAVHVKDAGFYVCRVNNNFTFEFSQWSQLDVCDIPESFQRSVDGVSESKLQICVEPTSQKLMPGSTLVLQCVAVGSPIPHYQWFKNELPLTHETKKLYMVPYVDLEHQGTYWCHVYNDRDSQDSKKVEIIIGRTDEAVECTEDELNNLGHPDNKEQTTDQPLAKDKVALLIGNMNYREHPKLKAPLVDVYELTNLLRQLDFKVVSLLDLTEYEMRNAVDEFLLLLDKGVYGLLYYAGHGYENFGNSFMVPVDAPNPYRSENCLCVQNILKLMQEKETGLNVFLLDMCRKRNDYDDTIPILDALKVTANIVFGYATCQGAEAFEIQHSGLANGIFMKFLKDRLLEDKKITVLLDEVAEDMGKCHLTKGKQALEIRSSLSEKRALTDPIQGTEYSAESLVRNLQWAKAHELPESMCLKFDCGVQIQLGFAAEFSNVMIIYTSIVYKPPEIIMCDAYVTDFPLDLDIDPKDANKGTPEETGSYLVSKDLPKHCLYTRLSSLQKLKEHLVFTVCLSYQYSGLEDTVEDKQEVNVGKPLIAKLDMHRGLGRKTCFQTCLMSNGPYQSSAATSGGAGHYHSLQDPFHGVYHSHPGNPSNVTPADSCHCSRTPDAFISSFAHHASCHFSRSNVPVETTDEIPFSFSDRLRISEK
Protocol: Inhibition of MALT1 activity by the presence of small molecules was evaluated using MALT-1 Fluorogenic Peptide Cleavage Assay. The assay utilizes a quenched AMC-labelled peptide that contains the MALT-1 recognition sequence and cleavage site (LRSR). MALT-1 mediated cleavage of the peptide relieves the quenching and leads to an increase in fluorescence at excitation (342 nm) and emission (441 nm). The following reagents were obtained commercially and used to prepare standard reagent formulations as further described below: […] The standard reagent formulations used in this assay were prepared and stored as follows. A 1.1 M solution of sodium citrate (161.3 g, 500 mL) was prepared and stored at room temperature. A 10% (w/v) CHAPS solution (2.0 g, 20 mL) was prepared and stored at 4° C. A 500 mM HEPES solution having pH of 6.89 was prepared from 200 mL of a 1 M HEPES solution having a pH of 7.5 using concentrated hydrochloric acid and brought to a final volume of 400 mL with […]® H2O. The substrate, 10 mM Ac-LRSR-AMC Peptide, was prepared (10 mg, 1.370 mL DMSO) and stored at -20° C. Compounds were plated to provide a 2% DMSO final concentration using a ProxiPlate-384 Plus F Black 384-shallow well microplate. The assay-ready plates were equilibrated to room temperature. […] DMSO was added only when compound plates had not been DMSO-backfilled to 2%. MALT-1 was thawed and kept on ice. Peptide substrate was thawed on the bench under ambient conditions. A MALT-1 enzyme working stock was prepared from Avi-tagged FL MALT-1 (40 nM in a prepared reagent volume of 16.5 μL) and the reaction buffer (13.0 mL). MALT1 working stock (5 μL) was added to each well of the microplate. MALT-1 was pre-incubated with compounds for 30 minutes at room temperature. […] The plates were covered and incubated on the bench at room temperature for 90 minutes. Fluorescence intensity was determined using a CLARIOstar microplate reader (BMG LABTECH) using the optimised AMC mode. Before taking readings, a 70% gain was applied on the neutral control well. Compound data were normalised to % Inhibition and used to plot sigmoidal concentration response curves to yield various parameters including IC50. […] Compounds in which an IC50 was not measured are designated as “N/A”.

[1] = Jurkat cells, 1 hr compound incubation, aCD3/aCD28/PMA stimulation 4 hr, One-Glo readout

- IC50 (NF-kB; [1]): < 400 nM
- IC50 (MALT1): < 400 nM
SMILES: [2H]C([2H])([2H])c1ccc2cnn(C)c2c1NS(=O)(=O)c1ccc(-n2cc(C(F)(F)F)cn2)nc1 [Example I-69, N-(1-Methyl-6-(Methyl-Ds)-1H-Indazol-7-yl)-6-(4-(Trifluoromethyl)-1H-Pyrazol-1-yl)Pyridine-3-Sulfonamide]

- IC50 (NF-kB; [1]): < 400 nM
- IC50 (MALT1): < 400 nM
SMILES: [2H]C([2H])(C)c1ccc2cnn(C)c2c1NS(=O)(=O)c1ccc(-n2cc(C(F)(F)F)cn2)nc1 [Example I-70, N-(6-(Ethyl-1,1-D2)-1-Methyl-1H-Indazol-7-yl)-6-(4-(Trifluoromethyl)-1H-Pyrazol-1-yl)Pyridine-3-Sulfonamide]

- IC50 (NF-kB; [1]): < 400 nM
- IC50 (MALT1): 1000 to 2500 nM
SMILES: Cc1cc(NS(=O)(=O)c2ccc(-n3cc(C(F)(F)F)cn3)nc2)c2c(cnn2C)c1 [Example I-71, N-(1,5-Dimethyl-1H-Indazol-7-yl)-6-(4-(Trifluoromethyl)-1H-Pyrazol-1-yl) Pyridine-3-Sulfonamide]

- IC50 (NF-kB; [1]): < 400 nM
- IC50 (MALT1): 1000 to 2500 nM
SMILES: COc1cc(NS(=O)(=O)c2ccc(-n3cc(C(F)(F)F)cn3)nc2)c2c(cnn2C)c1 [Example I-72, N-(5-Methoxy-1-Methylindazol-7-yl)-6-[4-(Trifluoromethyl)Pyrazol-1-Yl]Pyridine-3-Sulfonamide]

- IC50 (NF-kB; [1]): 400 to 1000 nM
- IC50 (MALT1): 400 to 1000 nM
SMILES: Cn1ncc2cc(F)cc(NS(=O)(=O)c3ccc(-n4cc(C(F)(F)F)cn4)nc3)c21 [Example I-73, N-(5-Fluoro-1-Methylindazol-7-yl)-6-[4-(Trifluoromethyl)Pyrazol-1-Yl]Pyridine-3-Sulfonamide]

- IC50 (NF-kB; [1]): < 400 nM
- IC50 (MALT1): < 400 nM
SMILES: [2H]C([2H])([2H])n1ncc2ccc(OC)c(NS(=O)(=O)c3ccc(-n4cc(C(F)(F)F)cn4)nc3)c21 [Example I-75, N-(6-Methoxy-1-(Methyl-D3)-1H-Indazol-7-yl)-6-(4-(Trifluoromethyl)-1H-Pyrazol-1-yl)Pyridine-3-Sulfonamide]

- IC50 (NF-kB; [1]): < 400 nM
- IC50 (MALT1): > 2500 nM
SMILES: Cn1ncc2cccc(NS(=O)(=O)c3ccc(-c4cc5ccccc5[nH]4)nc3)c21 [Example I-76, 6-(1H-Indol-2-yl)-N-(1-Methyl-1H-Indazol-7-yl)Pyridine-3-Sulfonamide]

Continued, compound first:

SMILES: Cn1ncc2cccc(NS(=O)(=O)c3ccc(-n4cc(C(F)F)cn4)nc3)c21 [Example I-50, 6-[4-(Difluoromethyl)Pyrazol-1-Yl]-N-(1-Methylindazol-7-yl)Pyridine-3-Sulfonamide]
- IC50 (NF-kB; [1]): < 400 nM
- IC50 (MALT1): 400 to 1000 nM

SMILES: Cn1ncc2cccc(NS(=O)(=O)c3ccc(-n4ccc(C(F)F)n4)nc3)c21 [Example I-51, 6-[3-(Difluoromethyl)Pyrazol-1-Yl]-N-(1-Methylindazol-7-yl)Pyridine-3-Sulfonamide]
- IC50 (NF-kB; [1]): < 400 nM
- IC50 (MALT1): 1000 to 2500 nM

SMILES: Cc1cnn(-c2ccc(S(=O)(=O)Nc3cccc4cnn(C)c34)cn2)n1 [Example I-52, N-(1-Methyl-1H-Indazol-7-yl)-6-(4-Methyl-2H-1,2,3-Triazol-2-yl)Pyridine-3-Sulfonamide]
- IC50 (NF-kB; [1]): 1000 to 2500 nM
- IC50 (MALT1): > 2500 nM

SMILES: Cc1cn(-c2ccc(S(=O)(=O)Nc3cccc4cnn(C)c34)cn2)nn1 [Example I-53, 6-(4-Methyl-1H-1,2,3-Triazol-1-yl)-N-(1-Methyl-1H-Indazol-7-yl)Pyridine-3-Sulfonamide]
- IC50 (NF-kB; [1]): 400 to 1000 nM
- IC50 (MALT1): > 2500 nM

SMILES: Cn1ncc2cccc(NS(=O)(=O)c3ccc(-n4cc(C5(F)CC5)cn4)nc3)c21 [Example I-55]
- IC50 (NF-kB; [1]): < 400 nM
- IC50 (MALT1): > 2500 nM

SMILES: Cn1ncc2cccc(NS(=O)(=O)c3ccc(-n4cc(C5(O)CC5)cn4)nc3)c21 [Example I-56, 6-(4-(1-hydroxycyclopropyl)-1H-pyrazol-1-yl)-N-(1-methyl-1H-indazol-7-yl)pyridine-3-sulfonamide]
- IC50 (NF-kB; [1]): < 400 nM
- IC50 (MALT1): > 2500 nM

SMILES: Cc1cnn(-c2ccc(S(=O)(=O)Nc3cccc4cnn(C)c34)cn2)c1C [Example I-57, 6-(4,5-Dimethylpyrazol-1-yl)-N-(1-Methylindazol-7-yl)Pyridine-3-Sulfonamide]
- IC50 (NF-kB; [1]): < 400 nM
- IC50 (MALT1): > 2500 nM

SMILES: Cc1cn(-c2ccc(S(=O)(=O)Nc3cccc4cnn(C)c34)cn2)nc1C [Example I-58, 6-(3,4-Dimethylpyrazol-1-yl)-N-(1-Methylindazol-7-yl)Pyridine-3-Sulfonamide]
- IC50 (NF-kB; [1]): < 400 nM
- IC50 (MALT1): 1000 to 2500 nM

SMILES: Cc1nn(-c2ccc(S(=O)(=O)Nc3cccc4cnn(C)c34)cn2)c(C)c1C [Example I-59, N-(1-Methyl-1H-Indazol-7-yl)-6-(3,4,5-Trimethyl-1H-Pyrazol-1-yl)Pyridine-3-Sulfonamide]
- IC50 (NF-kB; [1]): < 400 nM
- IC50 (MALT1): > 2500 nM

SMILES: Cn1ncc2cccc(NS(=O)(=O)c3ccc(-n4nccc4C4CC4)nc3)c21 [Example I-62, 6-(5-Cyclopropylpyrazol-1-yl)-N-(1-Methylindazol-7-yl)Pyridine-3-Sulfonamide]
- IC50 (NF-kB; [1]): < 400 nM
- IC50 (MALT1): > 2500 nM

SMILES: Cc1ccc2cnn(C)c2c1NS(=O)(=O)c1ccc(-c2cc(C(F)(F)F)n[nH]2)nc1 [Example I-63, N-(1,6-dimethyl-1H-indazol-7-yl)-6-(5-(trifluoromethyl)-1H-pyrazol-3-yl)pyridine-3-sulfonamide]
- IC50 (NF-kB; [1]): < 400 nM
- IC50 (MALT1): < 400 nM

SMILES: Cn1nnc2cccc(NS(=O)(=O)c3ccc(-n4cc(C(F)(F)F)cn4)nc3)c21 [Example I-64, N-(1-Methyl-1H-Benzo[D][1,2,3]Triazol-7-yl)-6-(4-(Trifluoromethyl)-1H-Pyrazol-1-yl)Pyridine-3-Sulfonamide]
- IC50 (NF-kB; [1]): > 2500 nM
- IC50 (MALT1): > 2500 nM

SMILES: Cc1cc(S(=O)(=O)Nc2cccc3cnn(C)c23)cnc1-n1cc(C(F)(F)F)cn1 [Example I-65, 5-Methyl-N-(1-Methyl-1H-Indazol-7-yl)-6-(4-(Trifluoromethyl)-1H-Pyrazol-1-yl)Pyridine-3-Sulfonamide]
- IC50 (NF-kB; [1]): < 400 nM
- IC50 (MALT1): 1000 to 2500 nM

SMILES: [2H]C([2H])([2H])Oc1ccc2cnn(C)c2c1NS(=O)(=O)c1ccc(-n2cc(C(F)(F)F)cn2)nc1 [Example I-68, N-(6-(Methoxy-D3)-1-Methyl-1H-Indazol-7-yl)-6-(4-(Trifluoromethyl)-1H-Pyrazol-1-yl)Pyridine-3-Sulfonamide]
- IC50 (NF-kB; [1]): < 400 nM
- IC50 (MALT1): < 400 nM

SMILES: COc1ncc2cnn(C)c2c1NS(=O)(=O)c1ccc(-n2cc(C(F)(F)F)cn2)nc1 [Example I-74, N-(6-methoxy-1-methyl-1H-pyrazolo[4,3-c]pyridin-7-yl)-6-(4-(trifluoromethyl)-1H-pyrazol-1-yl)pyridine-3-sulfonamide]
- IC50 (NF-kB): < 400 nM
- IC50 (MALT1): < 400 nM
